According to patent US20160193240A1, “Ulmoside-A: Useful For Prevention Or Cure Of Metabolic Diseases” (COUNCIL OF SCIENTIFIC & INDUSTRIAL RESEARCH, priority 2013, published 2016):

How the values were obtained:
AdipoR1 = molecular target: T1, AdipoR1 (Homo sapiens, UniProt Q96A54); assay: Radio-ligand saturation binding assay with 125I-ULMA, CHO cells transfected with AdipoR1
T1 construct: expressed in transfected cells; host or cells: Chinese Hamster Ovary cells (ECACC 85050302), transient transfection with Lipofectamine LTX
T1 sequence (Q96A54 1-375): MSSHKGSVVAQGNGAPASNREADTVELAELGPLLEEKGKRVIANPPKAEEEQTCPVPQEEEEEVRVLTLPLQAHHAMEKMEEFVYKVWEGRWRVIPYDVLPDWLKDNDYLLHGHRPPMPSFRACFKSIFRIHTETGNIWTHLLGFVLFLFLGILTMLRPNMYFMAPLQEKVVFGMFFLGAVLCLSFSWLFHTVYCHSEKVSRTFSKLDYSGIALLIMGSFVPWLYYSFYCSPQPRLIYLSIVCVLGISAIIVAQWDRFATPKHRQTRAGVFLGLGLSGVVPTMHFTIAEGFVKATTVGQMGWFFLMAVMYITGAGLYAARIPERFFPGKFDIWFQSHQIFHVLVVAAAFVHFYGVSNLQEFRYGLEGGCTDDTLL
Protocol: D. CHO cells transfected with empty vector or AdipoR1 or R2 expression vectors were incubated with various concentrations of ^125I-ULMA for 2 h at 4° C. Following washes, cells were lysed and count per minute was analyzed in a gamma counter. 200 fold molar excess of unlabeled ULMA was used for each concentration of radiolabeled ULMA for determining nonspecific activity. Count per minutes were normalized with total cellular protein content followed by further normalization with non-specific activity and plotted. Data is mean±SEM from three experiments performed in triplicates.
Further validation of AdipoR-ULMA interaction and its quantitation was done using a radio-ligand saturation binding assay using ^125I-ULMA. ULMA was first radiolabeled using chloramines-T method. 10 μl of ^125I (20 MBq; BARC, Mumbai, India) was added to 100 μg GTDF in 5% acetic acid/methanol, then chloramine-T (Sigma, 4 μg in MilliQ H2O) was added, and the mixture was allowed to react at room temperature (24° C.) for 5 min. […] was used for protein estimation using standard Bradford assay and rest of the lysate was used for measuring radioactivity in a gamma-counter (Cole Palmer). The count per minute was normalized with protein concentration and was further normalized with non specific binding, which was determined for every concentration of ^125I-ULMA, using 200 fold molar excess of unlabeled ULMA.

C2C12 myotubes = assay: Glucose uptake assay (3H-deoxyglucose) in C2C12 myotubes; assay type: cell-based, mouse; conditions: 10 nM
Protocol: A. ULMA enhances glucose uptake in C2C12 myotubes. C2C12 myotubes in 24 well plates were treated with vehicle (DMSO) or 10 nM ULMA and glucose uptake assay was performed in presence or absence of 100 nM insulin. Data is mean±SEM of six independent experiments performed in triplicates. *p<0.05, **p<0.01, ***p<0.001 as determined by two tailed unpaired student's t-test.
C. siAdipoR1 eliminates ULMA induction of glucose uptake. C2C12 myotubes were transfected with nonsilencing siC or siAdipoR1. 72 h after transfection, cells were treated for 24 h with 10 nM ULMA and glucose uptake assay was performed. Data is mean±SEM of three independent experiments performed in triplicates. ***p<0.001 as determined by two tailed unpaired student's t-test.
Adiponectin is known to enhance glucose uptake and fatty acid oxidation in skeletal muscle and myotubes (T. Kadowaki, T. Yamauchi, N. Kubota, K. Hara, K. Ueki, K. Tobe. J Clin Invest. 116(7): 1784-1792. 2006; T. Yamauchi, J. Kamon, Y. Ito, A. Tsuchida, T. Yokomizok, S. Kita, T. Sugiyama, M. Miyagishi, K. Hara, M. Tsunodaq, K. Murakamiq, T. Ohteki, S. Uchida, S. Takekawa, H. Waki, N. H. Tsuno, Y. Shibata, Y. Terauchi, P. Froguel, K. Tobe, S. Koyasu, K. Taira, T. Kitamura, T. Shimizuk, R. Nagai, T. Kadowaki. Nature. 423(6941):762-769. 2003). Therefore the ability of ULMA to influence insulin-dependent and independent glucose uptake and fatty acid oxidation was investigated in C2C12 myotubes. […] Subsequently, the cells were lysed in 100 μl 0.5N NaOH and 5 μl lysate was used for protein concentration determination, and rest of the lysate was used to measure cellular radioactivity in a beta-counter (Beckman Coulter). […] Radioactivity that had become adsorbed onto the filter discs was then quantified by liquid scintillation counting in a beta-counter (Beckman Coulter). The cells were lysed with 200 μl 0.5N NaOH and 5 μl of the lysate was used for protein estimation using Bradford assay and the radioactivity was normalized with the protein content.

## O=C1c2c(cc(O)c([C@@H]3O[C@H](CO)[C@@H](O)[C@H](O)[C@H]3O)c2O)O[C@@H](c2ccc(O)c(O)c2)[C@@H]1O [ULMA, (2S,3S)-(+)-3′,4′,5,7-tetrahydroxydihydroflavonol-6-C-β-D-glucopyranoside]
AdipoR1
  maximum binding (BMAX): 1410 fmol/mg of protein
AdipoR1; 2 hours, ice cold, read-out: dissociation constant (Kd)
  Kd: 4.9 nM
C2C12 myotubes; 24 h, 72 h after siRNA transfection
  ULMA-induced glucose uptake with siAdipoR1 (not siC): completely eliminated
C2C12 myotubes; 24 hours
  glucose uptake in absence of insulin: enhanced
C2C12 myotubes; 24 hours, 100 nM insulin 20 min
  glucose uptake in presence of insulin: enhanced
